Reference: patent publication US6054137A, “Promoting epidermal renewal with phloroglucinol” (Societe L'Oreal S.A., priority 1997, dated 2000)

Tested on: normal human keratinocytes
Assay: Proliferation of normal human keratinocytes cultured as a monolayer (BrdU test; score versus epinephrine)
Type: cell-based
Settings: at 10^-5 M; keratinocyte monolayer; 72 h
Method: Study of the effect of 1,3,5-trimethoxybenzene on the proliferation of normal human keratinocytes cultured as a monolayer:
The products are tested on 2nd passage normal human keratinocytes cultured in KGM medium (serum-free defined medium sold by the company Clonetics). The range of concentrations is between 10^-4 M and 10^-7 M. The products are tested twice on 2 different plates.
250 ng/ml epinephrine is employed as positive control of the proliferation.
The products are dissolved in dimethyl sulphoxide (DMSO). A 1×10^-2 M mother solution is prepared in DMSO. The following dilutions are carried out in KGM.
The keratinocytes are seeded at 6000 cells/cm^2. After culturing for 24 h, the product is applied to the cells for 72 h. The medium is replaced after treatment for 48 h.
BrdU kit (Boehringer Mannheim).
On the second day of treatment, a thymidine analogue (BrdU) is added to the culture medium overnight. This analogue makes it possible to label the cells during DNA synthesis. On the third day of treatment, the cells which have incorporated BrdU are identified with an anti-BrdU antibody.
For each product, the score (see table) is attributed as a function of the result obtained with respect to epinephrine (positive control for the proliferation).

## COc1cc(OC)cc(OC)c1 [1,3,5-Trimethoxybenzene, 1,3,5-trimethoxybenzene]
  Proliferative effect: induces proliferation of the keratinocytes
